In article PMC5754923 (Journal of medicinal chemistry, 2017):
“Also recorded” adds a separate entry of the source. Read-outs that look alike come from different tables or passages of the source.

Assays:
[1] = biological target: T1, full intracellular domain of BTN3A1 (Homo sapiens, UniProt O00481); conditions: known Kd, ref not given; cited from earlier work
K562 cells [2] = conditions: statement of the discussion, not tested here; ref not given; cited from earlier work
Vγ9Vδ2 T cells [3] = conditions: expansion from peripheral blood; ref [10]; cited from earlier work
Vγ9Vδ2 T cells [4] = assay: Expansion of Vγ9Vδ2 T cells from peripheral blood; assay type: cell-based, human; conditions: for Stimulation of Vγ9Vδ2 T cell proliferation: 0.1 µM, CD3+/γδ TCR+ population; for Fold difference from salt: prodrug versus unprotected salt
T cells = assay: Toxicity towards the T cells in the expansion assay; assay type: cell-based, human
[5] = biological target: T1, full intracellular domain of BTN3A1; assay: Isothermal titration calorimetry; assay type: binding; conditions: for Binding to BTN3A1: purified BTN3A1, direct titration
K562 cells [6] = assay: K562 proliferation; assay type: cell-based, human
[7] = HPLC and HPLC-MS analysis in aqueous acetonitrile; assay type: physicochemical
K562 cells [8] = assay: Vγ9Vδ2 T cell mediated lysis of K562 cells; conditions: for Fold difference from salt, lysis: 2 hour treatment/4 hour co-culture
[9] = presence of 10-fold higher compound 8
[10] = presence of 100-fold molar excess of compound 8

T1 sequence (O00481 272-513 limits assumed): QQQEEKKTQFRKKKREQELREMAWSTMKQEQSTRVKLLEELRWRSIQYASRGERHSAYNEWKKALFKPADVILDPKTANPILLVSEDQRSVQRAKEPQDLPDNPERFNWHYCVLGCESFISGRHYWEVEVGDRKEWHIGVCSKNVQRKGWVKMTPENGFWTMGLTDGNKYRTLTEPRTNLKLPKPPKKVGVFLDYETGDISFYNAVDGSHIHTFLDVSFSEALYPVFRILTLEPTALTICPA

With `C/C(=C\CP(=O)(O)OP(=O)(O)O)CO` [C-HMBPP, (E)-4-hydroxy-3-methyl-but-2-enyl phosphonophosphate] as the compound, how does the Kd [1] read?
Its Kd is 1.9 µM.

For `C/C(=C\CCP(=O)(OCOC(=O)C(C)(C)C)OCOC(=O)C(C)(C)C)CO` [Compound 2], which “Direct toxicity” value (K562 cells [2]) is on record?
Its value is “not directly toxic”.

Which EC50 (Vγ9Vδ2 T cells [3]) does the source give for `C/C(=C\CCP(=O)(O)O)CO` [Compound 3] here?
The EC50 was 4 µM.

Which “Stimulation of Vγ9Vδ2 T cell proliferation” value (Vγ9Vδ2 T cells [4]) does the source give for `C/C(=C\CCP(=O)(CP(=O)(OCOC(=O)C(C)(C)C)OCOC(=O)C(C)(C)C)OCOC(=O)C(C)(C)C)CO` (centres unmarked) [Compound 4, (E)-(((((5-Hydroxy-4-methylpent-3-en-1-yl)((pivaloyloxy)methoxy)phosphoryl)methyl)phosphoryl)bis(oxy))bis(methylene) bis(2,2-dimethylpropanoate)] here?
Its value is “strongly stimulated proliferation”.

What about the “Fold difference from salt” value (Vγ9Vδ2 T cells [4]; EC50 ratio) of the same compound?
Its value is 630 x.

What about the “Fold difference from salt” value (Vγ9Vδ2 T cells [4]; EC50 ratio, listed as POM3-CC-HMBPP (4)) of the same compound?
The value was 630x (versus 10).

And the EC50 (Vγ9Vδ2 T cells [4]; Homo sapiens, T-cell)?
The EC50 was 0.041 µM.

And the “Concentrations with toxicity towards the T cells” value (T cells; Figure 2B)?
Its value is no less than 10 µM.

And the “Binding to BTN3A1” value [5]?
Its value is “did not bind”.

What about the “Fold difference from HMBPP, direct K562 toxicity” value (K562 cells [6]; 72 hour treatment) of the same compound?
The value was greater than 29x.

And the “Fold difference from salt, direct K562 toxicity” value (K562 cells [6]; 72 hour treatment)?
Its value is greater than 29x.

And the “Stability in aqueous acetonitrile” value [7]?
Its value is “some minor isomerization”.

What about the “Fold difference in cellular activity between compound 4 and 11” value (K562 cells [8]) of the same compound?
The value was 26 fold.

What about the “Fold difference from salt, lysis” value (K562 cells [8]) of the same compound?
Its value is 150 x.

And the “Fold difference from salt, lysis” value (K562 cells [8]; listed as POM3-CC-HMBPP (4))?
The value was 146x.

For `CC(C)=CCCP(=O)([O-])CP(=O)([O-])[O-].[Na+].[Na+].[Na+]` [Compound 8, Sodium (((4-methylpent-3-en-1-yl)oxidophosphoryl)methyl)phosphonate], which EC50 (Vγ9Vδ2 T cells [4]; Homo sapiens, T-cell) is on record?
The EC50 was greater than 100 µM.

And the IC50 (T cells; Homo sapiens, T-cell)?
The IC50 was greater than 100 µM.

And the “Competition with HMBPP binding” value ([5]; 10x and 100x compound 8)?
Its value is “capable of disrupting HMBPP binding in a dose-dependent manner”.

What about the “Binding to BTN3A1” value [5] of the same compound?
Its value is “too low to be measured directly; also recorded: intermediate affinity”.

What about the EC50 (K562 cells [8]; Homo sapiens, K562, 2 h, read-out: EC50, lysis of K562 cells by T cells) of the same compound?
The EC50 was greater than 100 µM.

What does the source list for `COP(=O)(CC/C=C(\C)CO)CP(=O)(OC)OC` (centres unmarked) [Compound 9, Dimethyl (E)-(((5-hydroxy-4-methylpent-3-en-1-yl)(methoxy)phosphoryl)methyl)phosphonate]?
Agonist / biological activity (Vγ9Vδ2 T cells [4]): nor is biologically active; EC50 (Vγ9Vδ2 T cells [4]; PBMC exposed 72 hours, grown 11 days, flow cytometry): > 100 µM; IC50 (T cells; toxicity in T cell expansion assay): > 100 µM; Binding to BTN3A1 [5]: neither binds to the protein; IC50 (K562 cells [6]; read-out: IC50, direct K562 toxicity, 72 hour treatment): > 100 µM

Which EC50 (Vγ9Vδ2 T cells [4]; Homo sapiens, T-cell) does the source give for `C/C(=C\CCP(=O)([O-])CP(=O)([O-])[O-])CO.[Na+].[Na+].[Na+]` [Compound 10, Sodium (E)-(((5-hydroxy-4-methylpent-3-en-1-yl)oxidophosphoryl)methyl)phosphonate] here?
The EC50 was 26 µM.

What about the IC50 (T cells; Homo sapiens, T-cell) of the same compound?
The IC50 was greater than 100 µM.

What about the “Binding to BTN3A1” value [5] of the same compound?
Its value is “intermediate affinity”.

With `CC(C)=CCCP(=O)(CP(=O)(OCOC(=O)C(C)(C)C)OCOC(=O)C(C)(C)C)OCOC(=O)C(C)(C)C` (centres unmarked) [Compound 11, (((((4-Methylpent-3-en-1-yl)((pivaloyloxy)methoxy)phosphoryl)methyl)phosphoryl)bis(oxy))bis(methylene) bis(2,2-dimethylpropanoate)] as the compound, how does the “Agonist / biological activity” value (Vγ9Vδ2 T cells [4]) read?
Its value is “No measurable agonist activity”.

And the “Fold difference from HMBPP” value (Vγ9Vδ2 T cells [4]; EC50 ratio)?
The value was less than 0.0000051x.

What about the EC50 (Vγ9Vδ2 T cells [4]; Homo sapiens, T-cell) of the same compound?
Its EC50 is greater than 100 µM.

What about the IC50 (T cells; Homo sapiens, T-cell) of the same compound?
The IC50 was greater than 100 µM.

What about the “Fold difference from HMBPP, direct K562 toxicity” value (K562 cells [6]; 72 hour treatment) of the same compound?
Its value is greater than 10x.

What about the “Fold difference from salt, direct K562 toxicity” value (K562 cells [6]; 72 hour treatment) of the same compound?
Its value is greater than 10x.

And the “Fold difference from salt, lysis” value (K562 cells [8])?
The value was greater than 14x.

With `C/C(=C\COP(=O)(O)OP(=O)(O)O)CO` [HMBPP, (E)-4-hydroxy-3-methyl-but-2-enyl diphosphate, reference compound] as the compound, how does the “Stimulation of Vγ9Vδ2 T cell proliferation” value (Vγ9Vδ2 T cells [4]) read?
The value was “strongly stimulated proliferation”.

And the “TΔS of HMBPP binding” value ([5]; absence of compound 8)?
Its value is -4.54 kcal/mol.

What about the “ΔH of HMBPP binding” value ([5]; absence of compound 8) of the same compound?
Its value is -12.4 kcal/mol.

And the “TΔS of HMBPP binding” value [5, 9]?
Its value is -1.1 kcal/mol.

What about the “ΔH of HMBPP binding” value [5, 9] of the same compound?
The value was -9.32 kcal/mol.

What about the “TΔS of HMBPP binding” value [5, 10] of the same compound?
Its value is “+28 kJ/mol”.

What about the “ΔH of HMBPP binding” value [5, 10] of the same compound?
Its value is -1.65 kcal/mol.

And the “Direct toxicity” value (K562 cells [6])?
Its value is “not directly toxic”.

What about the “Hill slope, K562 lysis” value (K562 cells [8]; four parameter non-linear regression) of the same compound?
The value was 0.69.

With `C=C(C)CCOP(=O)(O)OP(=O)(O)O` [IPP, isopentenyl diphosphate] as the compound, how does the “Direct toxicity” value (K562 cells [2]) read?
Its value is “not directly toxic”.

Which “Direct toxicity” value (K562 cells [2]) does the source give for `O=P(O)(O)C(O)(Cc1cccnc1)P(=O)(O)O` [risedronate] here?
The value was “do exhibit direct toxicity”.

With `O=P(O)(O)C(O)(Cn1ccnc1)P(=O)(O)O` [zoledronate] as the compound, how does the “Direct toxicity” value (K562 cells [2]) read?
Its value is “do exhibit direct toxicity”.
